Reference: US20120231015A1, “FRAGILE X MENTAL RETARDATION PROTEIN (FMRP), COMPOSITIONS, AND METHODS RELATED THERETO” (EMORY UNIVERSITY, priority 2009, published 2012)
“Also recorded” adds a separate entry of the source.

What was measured:
PI3K (p110beta) = assay: In vitro PI3K assay with immunoprecipitated p110beta from treated cortical synaptoneurosomes (SNS); format: cell-based, mouse
Procedure: In vitro PI3K assays were performed as described previously (Ye et al., (2000) Cell 103:919-930) using p110beta antibody. In vitro extracellular signal-regulated kinase (ERK) activity assays were performed using the p44/42 MAP Kinase Assay kit from Cell Signaling Technology according to the manual. HEK293T cells were cultured in DMEM supplemented with 10% FBS. Fmr1-specific siRNA was transfected using LF2000 (Invitrogen) according to the manual. At 48 h after transfection, cells were scraped from the dish with PBS, divided into two equal parts for PI3K and ERK activity assays, respectively. […] Cortical synaptoneurosomes (SNS) were prepared as described previously (Muddashetty et al., (2007) J Neurosci 27:5338-5348.). SNS were split in two equal parts for PI3K and ERK activity assays. Cells and SNS were lysed in kinase assay buffers (for PI3K assay: 50 mM Tris-HCl, pH 7.4, 40 mM NaCl, 1 mM EDTA, 0.5% Triton X-100, 1.5 mM Na3VO4, 50 mM NaF, 10 mM sodium pyrophosphate, and 10 mM sodium β-glycerol phosphate, supplemented with proteinase inhibitors; for ERK activity assay: lysis buffer provided by Cell Signaling Technology). Lysates were cleared by centrifugation, and protein concentrations were determined by the Bradford method. For both kinase assays, the same amount of protein was used for wild-type (WT) and Fmr1 KO SNS or sifmr1 knockdown (KD) and sictr HEK293T cells, respectively. For measuring PI3K activity following various treatments, SNS were incubated for 10 min at 37° C. with either 100 μM (S)-3,5-dihydroxyphenylglycine (DHPG) or 10 μM 2-methyl-6-(phenylethynyl)-pyridine (MPEP) or for 1 h at 37° C. with tat-mGluR5-CT or tat-mGluR5-MUT peptides (5 μM) before lysis. For PI3K assays with cortical neurons, cells at 11d in vitro (DIV) were transfected with 10 μl of control adenovirus or adenovirus carrying short-hairpin PIKE-L (as described previously by Tang et al., (2008) Nat Cell Biol 10:698-706.) for 48 h. PI3K assays were performed with 300 μg of protein as described above. To confirm PIKE-L knockdown, 80 μg of protein was used for Western blot analyses using anti-PIKE-L antibody.

PDK1 = settings: hippocampal slices from Fmr1 KO mice; cited from earlier work
cortical SNS = assay: Metabolic labeling of cortical SNS with [35S]methionine (synaptic translation rates); format: cell-based, mouse; settings: for translation rates (amino acid incorporation): antagonist 50 μM; for translation rates ([35S] incorporation in 5 min): antagonist 10 μM
Procedure: (§1) Cortical SNS were prepared as described previously (Muddashetty et al., 2007) and treated with the indicated antagonists or solvent for 5 min at 37° C., for some experiments followed by DHPG (100 μM) for 15 min at 37° C. as indicated, and with puromycin (2 mM) for 30 min at 37° C. Metabolic labeling was performed with 100 μCi Pro-Mix, L-(35S) in vitro cell labeling mix (GE Healthcare) for 5 min. Triplicate samples from time point 0 and 5 min were washed once in homogenization buffer, followed by lysis (100 mM Tris-HCl, pH 7.4, 150 mM NaCl, 0.5% deoxycholate, and 1% Triton X-100, supplemented with proteinase inhibitors) and TCA precipitation. 35S-incorporation levels were estimated by scintillation counting.

p110beta = p110beta protein levels by Western blot in cortical SNS; format: cell-based, mouse; settings: DHPG 15 min, 50 μM
Procedure: SDS-PAGE and Western blots were performed as described previously (Muddashetty et al., 2007) and quantified using NIH ImageJ. Signal intensities of p110beta- and FMRP-specific bands were normalized to tubulin signal on the same blot. Signal intensities of phospho-proteins were normalized to total levels of the respective protein on the same blot. For this purpose, Western blots were stripped after detection with the phospho-specific antibodies using 100 mM β-mercaptoethanol and 2% SDS in 62.5 mM Tris-HCl, pH 6.8, at 50° C. for 30 min and, after extensive washing, detected with the respective antibody specific for the total protein.
as §1, with “[…],” for “for some experiments followed by DHPG (100 μM) for 15 min at 37° C. as indicated,”

p110beta mRNA = p110beta mRNA in polysomal fractions of sucrose gradients, cortical SNS; format: cell-based, mouse
Procedure: Gradient preparation, centrifugation, fractionation, RNA purification, and qRT-PCRs were performed as described previously (Muddashetty et al., 2007).
as §1, with “[…],” for “for some experiments followed by DHPG (100 μM) for 15 min at 37° C. as indicated,”

[1] = tested on: primary hippocampal neurons; assay: Constitutive AMPAR internalization assay; format: cell-based, mouse; settings: WT neurons
rat hippocampal neurons = settings: siRNA-mediated FMRP deficiency; cited from earlier work

N[C@H](C(=O)O)c1cc(O)cc(O)c1 [DHPG, (S)-3,5-dihydroxyphenylglycine]
PI3K activity (PI3K (p110beta); Fmr1 KO SNS, DHPG 100 μM, 10 min): failed to activate PI3K; also recorded: significant reduction of PI3K activity; also recorded: decreased PI3K activity
PI3K activity (PI3K (p110beta); WT SNS, DHPG 100 μM, 10 min): twofold increase
phosphorylation of PDK1 (PDK1): does not induce the phosphorylation of PDK1
DHPG-induced translational activation (cortical SNS; Fmr1 KO SNS, no antagonist): occluded
p110beta protein expression (p110beta; Fmr1 KO SNS): occluded; also recorded: does not increase protein expression
p110beta protein levels (p110beta; WT SNS): led to increased p110beta protein levels; also recorded: increases p110beta protein levels
p110beta mRNA in puromycin-sensitive polysomal fractions (translation) (p110beta mRNA; Fmr1 KO SNS, DHPG 15 min, 50 μM): occluded
p110beta mRNA in puromycin-sensitive polysomal fractions (p110beta mRNA; WT SNS, DHPG 15 min, 50 μM): induced a significant shift of p110beta mRNA into puromycin-sensitive fractions; also recorded: leads to a shift of p110beta mRNA into puromycin-sensitive fractions

O=c1cc(N2CCOCC2)oc2c(-c3ccccc3)cccc12 [LY294002, 2-(4-morpholinyl)-8-phenyl-1(4H)-benzopyran-4-one]
constitutive endocytosis of AMPARs in distal dendrites (median) ([1]; LY294002 50 μM for 1 h): 35.3
translation rates (amino acid incorporation) (cortical SNS; Fmr1 KO SNS): could specifically rescue the excessive synaptic translation; also recorded: significantly reduced amino acid incorporation rates

N#CC(=C(N)Sc1ccccc1N)C(C#N)=C(N)Sc1ccccc1N [U0126, 1,4-diamino-2,3-dicyano-1,4-bis(o-aminophenylmercapto)butadiene]
constitutive endocytosis of AMPARs in distal dendrites (median) ([1]; U0126 20 μM for 1 h): 43.8
DHPG-induced translational activation after antagonist pretreatment (cortical SNS; Fmr1 KO SNS, DHPG 100 μM, 15 min): did not rescue DHPG-stimulated translation; also recorded: but not by ERK1/2 inhibition
DHPG-induced translational activation after antagonist pretreatment (cortical SNS; WT SNS, DHPG 15 min, 100 μM): abolished DHPG-induced translational increase; also recorded: abolish
translation rates, genotype dependence of effect (cortical SNS; WT and Fmr1 KO SNS, U0126 20 μM): reduced protein synthesis levels independently of genotype to the same extent; also recorded: did not show a genotype-specific effect on translation rates

Cc1cc(C(=O)O)ccc1[C@H](N)C(=O)O [LY367385]
translation rates ([35S] incorporation in 5 min) (cortical SNS; Fmr1 KO SNS): reduced synaptic Fmr1 KO translation; also recorded: significantly decreased translation rates

Cc1cccc(C#Cc2ccccc2)n1 [MPEP, 2-methyl-6-(phenylethynyl)-pyridine]
PI3K activity (PI3K (p110beta); Fmr1 KO SNS, MPEP 10 μM, 10 min at 37° C.): significantly reduced PI3K function; also recorded: significantly reduces PI3K activity
PI3K activity (PI3K (p110beta); WT SNS, MPEP 10 μM, 10 min at 37° C.): no significant effect
translation rates ([35S] incorporation in 5 min) (cortical SNS; Fmr1 KO SNS): reduced synaptic Fmr1 KO translation; also recorded: significantly decreased translation rates
levels of internalized AMPARs (rat hippocampal neurons): rescued increased levels of internalized AMPARs

O=c1cc(N2CCNCC2)oc2c(-c3ccccc3)cccc12 [LY303511, 2-(1-piperazinyl)-8-phenyl-4H-1-benzopyran-4-one]
translation rates (cortical SNS; SNS, inactive analog of LY294002): did not show any effect; also recorded: did not alter translation rates

COc1ccc(C[C@H](N)C(=O)N[C@H]2[C@@H](O)[C@H](n3cnc4c(N(C)C)ncnc43)O[C@@H]2CO)cc1 [puromycin]
association of p110beta mRNA with synaptoneurosomal polysomes (p110beta mRNA; SNS, puromycin 2 mM, 30 min at 37° C.): sensitive to puromycin treatment

N[C@@H](CCCP(=O)(O)O)C(=O)O [APV]
translation rates (amino acid incorporation) (cortical SNS; Fmr1 KO SNS): failed to reduce augmented translation in KO
translation, genotype dependence of effect (cortical SNS; WT and Fmr1 KO SNS, APV 50 μM): affected translation similarly across genotypes
